Measured values from patent US20140363898A1, “METHOD FOR THE IDENTIFICATION OF BETA-SHEET AGGREGATED PROTEIN LIGANDS” (Hoffmann-La Roche Inc., priority 2011, published 2014).

Assays:
[1] = target: T1, aggregated alpha-synuclein (human recombinant) (Homo sapiens, UniProt P37840); test: Thiazine-red fluorescence displacement assay on aggregated alpha-synuclein; settings: displacement of Thiazin-red at the high affinity binding site; compound 0.3 nM to 10000 nM; 30 min room temperature; average of different experiments; read-out: aggr. α-syn IC50
T1 construct: made in house; host or cells: E. coli
Description: Human recombinant-Alpha-synuclein-purified from E. coli is aggregated with Arachidonic Acid (100 μM) in Tris 10 mM pH 8, for 5 days at 37° C., under shaking at 150 rpm.
Thiazin-red will be added at the concentration corresponding to the Kd to the respective aggregated protein binding site, to induce a fluorescent signal that can be inhibited by the addition of a displacer compound
In parallel, auto fluorescence of the compound is measured together with the aggregated proteins, but without Thiazin-red. As negative control, ligand and aggregated protein is used and as positive control, Thiazin-red, reference compound with known activity and aggregated protein is used.
Assay is performed in Perkin Elmer OptiPlate 384, black, 45 ul assay volume, assay buffer is DPBS no CaCl2 no MgCl2 (GIBCO N. 14020). Tested compounds are diluted in DMSO and 2 μl is added to the assay (5% DMSO final). Assay is started by the addition of the aggregated protein (competitive condition). Plates are shortly shacked (1 min with Sterico variomag teleshake) and incubated for 30 min at room temperature. Measurement are done with En:Vision (Perkin Elmer), at Excitation 531 nm/Emission 595 nm.

[2] = target: T2, aggregated Tau (recombinant human microtubule associated protein Tau) (Homo sapiens, UniProt P10636); test: Thiazine-red fluorescence displacement assay on aggregated tau; settings: displacement of Thiazin-red at the high affinity binding site; compound 0.3 nM to 10000 nM; 30 min room temperature; average of different experiments; read-out: aggr. TAU IC50
T2 construct: made in house; host or cells: E. coli
T2 sequence (P10636 1-441 isoform P10636-8): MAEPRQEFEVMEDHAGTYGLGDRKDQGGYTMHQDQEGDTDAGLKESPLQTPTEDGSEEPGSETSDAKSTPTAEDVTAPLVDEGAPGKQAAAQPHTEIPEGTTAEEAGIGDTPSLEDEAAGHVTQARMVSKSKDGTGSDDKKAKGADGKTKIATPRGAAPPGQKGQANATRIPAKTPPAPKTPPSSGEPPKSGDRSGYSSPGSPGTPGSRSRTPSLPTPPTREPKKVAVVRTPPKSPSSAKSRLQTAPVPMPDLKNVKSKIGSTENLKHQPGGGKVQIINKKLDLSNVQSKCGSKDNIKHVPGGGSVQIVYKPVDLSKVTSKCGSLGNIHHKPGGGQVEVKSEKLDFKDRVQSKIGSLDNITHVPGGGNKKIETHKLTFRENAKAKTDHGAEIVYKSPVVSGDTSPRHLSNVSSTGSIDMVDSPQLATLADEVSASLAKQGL
Description: (§1) Recombinant human-microtubule associated protein Tau purified from E. coli is aggregated at a concentration of 5 μM with Arachidonic Acid (100 μM) in Tris 10 mM pH8, 24h at 37° C. Synthetic Aβ40 is aggregated with Arachidonic Acid (100 μM) in Tris 10 mM pH8, for three days at 37° C., under shaking at 150 rpm. […] In parallel, auto fluorescence of the compound is measured together with the aggregated proteins, but without Thiazin-red. As negative control, ligand and aggregated protein is used and as positive control, Thiazin-red, reference compound with known activity and aggregated protein is used. Assay is performed in Perkin Elmer OptiPlate 384, black, 45 ul assay volume, assay buffer is DPBS no CaCl2 no MgCl2 (GIBCO N. 14020). Tested compounds are diluted in DMSO and 2 μl is added to the assay (5% DMSO final). Assay is started by the addition of the aggregated protein (competitive condition). Plates are shortly shacked (1 min with Sterico variomag teleshake) and incubated for 30 min at room temperature. Measurement are done with En:Vision (Perkin Elmer), at Excitation 531 nm/Emission 595 nm.

[3] = target: T3, aggregated Aβ40 (synthetic) (Homo sapiens, UniProt P05067); test: Thiazine-red fluorescence displacement assay on aggregated Aβ40; settings: displacement of Thiazin-red at the high affinity binding site; compound 0.3 nM to 10000 nM; 30 min room temperature; average of different experiments; read-out: aggr. Aβ40 IC50
T3 construct: Id; No. 4; host or cells: synthetic peptide
T3 sequence (P05067 672-711): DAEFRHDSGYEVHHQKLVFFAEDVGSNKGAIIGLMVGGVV
Description: as §1

Q: How did the IC50 [1] turn out when `CNc1ccc(-c2nc3ccc(O)cc3s2)cc1` [PIB] was run?
A: 7.02 µM

Q: And the IC50 [2]?
A: 3.26 µM

Q: Which IC50 [1] does the source give for `CN(C)c1ccc(C(=C2C=CC(=[N+](C)C)C=C2)c2ccc(N(C)C)cc2)cc1` [Crystal Violet] here?
A: 1.72 µM

Q: And the IC50 [2]?
A: 1.55 µM

Q: And the IC50 [3]?
A: 1.28 µM

Q: For `Cc1cc(-c2ccc(/N=N/c3ccc4c(S(=O)(=O)O)cc(S(=O)(=O)O)c(N)c4c3O)c(C)c2)ccc1/N=N/c1ccc2c(S(=O)(=O)O)cc(S(=O)(=O)O)c(N)c2c1O` [Evans Blue], which IC50 [1] is on record?
A: 0.0076 µM

Q: What about the IC50 [2] of the same compound?
A: 0.001 µM

Q: What about the IC50 [3] of the same compound?
A: 0.0888 µM

Q: Which IC50 [1] does the source give for `CNc1ccc(-c2nc3ccc(O)cc3s2)cn1` [AZD2184] here?
A: > 10 µM

Q: What about the IC50 [2] of the same compound?
A: 9.8 µM

Q: And the IC50 [3]?
A: > 10 µM

Q: `O=C(O)c1cc(/C=C/c2ccc(/C=C/c3ccc(O)c(C(=O)O)c3)c(Br)c2)ccc1O` [BSB] was tested. Which IC50 [1] did it give?
A: 0.0363 µM

Q: What about the IC50 [2] of the same compound?
A: 0.0184 µM

Q: What about the IC50 [3] of the same compound?
A: 0.0784 µM

Q: Which results are given for `CC(=C(C#N)C#N)c1ccc2cc(N(C)CCF)ccc2c1` [FDDNP]?
A: IC50 [1]: 1.18 µM; IC50 [2]: 1.64 µM; IC50 [3]: 1.47 µM

Q: With `COc1cc(/C=C/c2ccc(O)cc2)ccc1/C=C/c1ccc(O)cc1` [MeXO4] as the compound, how does the IC50 [1] read?
A: 0.239 µM

Q: What about the IC50 [2] of the same compound?
A: 0.494 µM

Q: And the IC50 [3]?
A: 0.307 µM

Q: Which results are given for `Nc1c(/N=N/c2ccc(-c3ccc(/N=N/c4cc(S(=O)(=O)O)c5ccccc5c4N)cc3)cc2)cc(S(=O)(=O)O)c2ccccc12` [Congo Red]?
A: IC50 [1]: 0.0044 µM; IC50 [2]: 0.0054 µM; IC50 [3]: 0.0136 µM

Q: `CNc1ccc(-c2ccc3ccccc3n2)cc1` [BF-158] was tested. Which IC50 [1] did it give?
A: > 10 µM

Q: And the IC50 [2]?
A: > 10 µM

Q: And the IC50 [3]?
A: > 10 µM

Q: Which IC50 [1] does the source give for `CN(C)c1ccc(-c2cn3cc(I)ccc3n2)cc1` [IMPY] here?
A: 5.7 µM

Q: What about the IC50 [2] of the same compound?
A: 2.71 µM
